Experimental data reported in ChEMBL document CHEMBL1201862, “PubChem BioAssay data set” (2004).
“And” between values parts separate entries of the source, which are not always exact repeats. Equal values may be shown once. The source made the active and inactive calls.

Experiments:
[1] = target: T1, Nucleotide-binding oligomerization domain-containing protein 1 (Homo sapiens, UniProt Q9Y239); assay: SAR analysis of NF-kappaB dependent luciferase using DAP as an inducer - Set 2. [Related pubchem assays (depositor defined):AID1566, AID1575, AID1578, AID1579, AID1849, AID1852, AID2264]; assay type: functional
T1 sequence (Q9Y239 whole entry): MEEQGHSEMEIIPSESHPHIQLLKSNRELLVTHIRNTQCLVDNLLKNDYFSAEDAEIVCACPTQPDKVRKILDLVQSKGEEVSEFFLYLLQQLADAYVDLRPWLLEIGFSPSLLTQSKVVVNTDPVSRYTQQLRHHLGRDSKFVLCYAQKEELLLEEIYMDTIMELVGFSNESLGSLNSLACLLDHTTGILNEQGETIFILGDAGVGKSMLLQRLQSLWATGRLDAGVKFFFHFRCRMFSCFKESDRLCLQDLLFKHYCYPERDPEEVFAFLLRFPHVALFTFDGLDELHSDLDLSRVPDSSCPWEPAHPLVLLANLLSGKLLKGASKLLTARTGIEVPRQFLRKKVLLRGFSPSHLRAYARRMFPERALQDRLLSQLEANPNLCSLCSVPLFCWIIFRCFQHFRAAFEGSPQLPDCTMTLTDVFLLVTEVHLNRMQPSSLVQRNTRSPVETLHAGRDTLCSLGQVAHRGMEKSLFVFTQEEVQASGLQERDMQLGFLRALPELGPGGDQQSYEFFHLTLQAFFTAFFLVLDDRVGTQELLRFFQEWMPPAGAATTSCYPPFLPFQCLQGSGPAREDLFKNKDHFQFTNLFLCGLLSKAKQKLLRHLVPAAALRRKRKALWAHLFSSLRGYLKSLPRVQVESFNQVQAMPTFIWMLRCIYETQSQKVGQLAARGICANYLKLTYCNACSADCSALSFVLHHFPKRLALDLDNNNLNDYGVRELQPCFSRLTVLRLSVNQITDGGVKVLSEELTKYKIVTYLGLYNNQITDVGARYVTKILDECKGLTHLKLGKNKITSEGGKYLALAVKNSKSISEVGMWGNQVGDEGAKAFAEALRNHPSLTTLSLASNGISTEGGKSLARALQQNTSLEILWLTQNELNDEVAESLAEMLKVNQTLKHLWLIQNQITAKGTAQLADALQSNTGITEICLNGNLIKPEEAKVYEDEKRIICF

HEK293 [2] = assay: inhibition of NOD1-driven NF-kB reporter – cell-based, luminescence, uHTS, primary screen (AID 1578); assay type: functional; settings: Homo sapiens
HEK293 [3] = assay: cells; assay type: functional, cell-based; settings: Homo sapiens
HEK293 [4] = assay: cells; assay type: functional, cell-based; settings: Homo sapiens; remark: listed apart in the source
HEK293 [5] = assay: NOD2 signaling inhibitors in MDP-stimulated cells, cell-based, uHTS, luminescence (AID 2001); assay type: functional; settings: Homo sapiens
Interleukin-8 [6] = target: T2, Interleukin-8 (Homo sapiens, UniProt P10145); assay: SAR analysis of Tumor necrosis factor alpha (TNF-alpha) induced IL-8 secretion in MCF-7/NOD1 cells - Set 2. [Related pubchem assays (depositor defined):AID1575, AID2250, AID2260]; assay type: functional, cell-based
T2 sequence (P10145 whole entry): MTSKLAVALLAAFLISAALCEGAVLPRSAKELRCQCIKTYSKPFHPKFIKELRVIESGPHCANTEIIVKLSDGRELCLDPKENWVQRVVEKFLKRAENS

Interleukin-8 [7] = target: T2, Interleukin-8; assay: SAR analysis of GM-Tri-DAP induced IL-8 secretion in MCF-7/NOD1 cells - Set 2. [Related pubchem assays (depositor defined):AID1575, AID1578, AID2333]; assay type: functional, cell-based
[8] = target: T3, Nucleotide-binding oligomerization domain-containing protein 2 (Homo sapiens, UniProt Q9HC29); assay: inhibition of NOD2 signaling – set 2, SAR follow-up (AID 2475); assay type: functional
T3 sequence (Q9HC29 whole entry, the tested form may be a part): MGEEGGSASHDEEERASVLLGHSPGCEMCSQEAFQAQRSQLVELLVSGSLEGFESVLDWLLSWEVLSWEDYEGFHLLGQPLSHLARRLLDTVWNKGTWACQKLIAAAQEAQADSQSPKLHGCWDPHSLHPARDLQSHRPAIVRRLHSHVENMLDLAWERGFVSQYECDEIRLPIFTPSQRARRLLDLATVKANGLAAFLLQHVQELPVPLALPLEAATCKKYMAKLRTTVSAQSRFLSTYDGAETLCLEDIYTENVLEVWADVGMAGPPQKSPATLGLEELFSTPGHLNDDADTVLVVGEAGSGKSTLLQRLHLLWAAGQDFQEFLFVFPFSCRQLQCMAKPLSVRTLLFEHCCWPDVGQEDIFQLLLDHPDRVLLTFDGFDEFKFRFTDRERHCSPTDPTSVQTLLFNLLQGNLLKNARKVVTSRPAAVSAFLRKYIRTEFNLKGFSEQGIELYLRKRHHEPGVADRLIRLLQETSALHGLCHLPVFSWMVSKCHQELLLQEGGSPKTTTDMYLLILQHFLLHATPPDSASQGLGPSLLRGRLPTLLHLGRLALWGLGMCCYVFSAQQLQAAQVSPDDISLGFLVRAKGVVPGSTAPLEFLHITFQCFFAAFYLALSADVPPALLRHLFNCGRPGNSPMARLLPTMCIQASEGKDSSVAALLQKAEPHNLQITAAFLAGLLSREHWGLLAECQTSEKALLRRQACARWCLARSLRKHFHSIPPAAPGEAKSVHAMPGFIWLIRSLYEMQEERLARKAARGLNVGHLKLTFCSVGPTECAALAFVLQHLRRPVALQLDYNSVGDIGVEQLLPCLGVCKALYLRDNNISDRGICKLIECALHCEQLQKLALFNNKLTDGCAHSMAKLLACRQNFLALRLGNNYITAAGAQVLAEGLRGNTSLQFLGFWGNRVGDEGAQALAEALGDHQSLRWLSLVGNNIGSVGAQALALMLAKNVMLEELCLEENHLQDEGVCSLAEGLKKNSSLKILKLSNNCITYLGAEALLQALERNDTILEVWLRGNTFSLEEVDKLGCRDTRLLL

Tumor necrosis factor [9] = target: T4, Tumor necrosis factor (Homo sapiens, UniProt P01375); assay: analog potency on TNFa NF-kB signaling – cell-based, revised, SAR follow-up (AID 2337); assay type: functional
T4 sequence (P01375 whole entry): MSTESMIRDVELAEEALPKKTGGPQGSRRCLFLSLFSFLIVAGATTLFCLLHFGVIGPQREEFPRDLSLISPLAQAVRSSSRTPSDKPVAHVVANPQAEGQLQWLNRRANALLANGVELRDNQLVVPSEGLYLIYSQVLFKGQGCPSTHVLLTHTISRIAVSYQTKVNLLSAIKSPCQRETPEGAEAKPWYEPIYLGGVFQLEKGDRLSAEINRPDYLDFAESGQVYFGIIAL

HEK293 [10] = assay: SAR analysis of compounds that are cytotoxic to HEK293 - Set 2. [Related pubchem assays (depositor defined):AID1575, AID1578, AID1849, AID2001, AID2333, AID2334, AID2335, AID2337, AID2800]; assay type: functional, cell-based; settings: Homo sapiens
[11] = target: T1, Nucleotide-binding oligomerization domain-containing protein 1; assay: blockers of NOD1 pathway activity – revised, SAR follow-up (AID 2333); assay type: functional
[12] = target: T1, Nucleotide-binding oligomerization domain-containing protein 1; assay: SAR analysis of compounds that inhibit NOD1 - Set 3. [Related pubchem assays (depositor defined):AID1566, AID1575, AID1578, AID1849, AID1852, AID2333, AID2335, AID2466]; assay type: functional
Tumor necrosis factor [13] = target: T4, Tumor necrosis factor; assay: analog potency on TNFa NF-kB signaling – cell-based, set 3, SAR follow-up (AID 2801); assay type: functional
HEK293 [14] = assay: SAR analysis of compounds that are cytotoxic to HEK293 - Set 3. [Related pubchem assays (depositor defined):AID1575, AID1578, AID1848, AID1849, AID2001, AID2333, AID2334, AID2335, AID2337, AID2469]; assay type: functional, cell-based; settings: Homo sapiens
[15] = target: T3, Nucleotide-binding oligomerization domain-containing protein 2; assay: PubChem AID 2334; assay type: functional
[16] = target: T3, Nucleotide-binding oligomerization domain-containing protein 2; assay: inhibition of MDP-driven NOD2 NF-kB reporter – cell-based, set 3, SAR follow-up (AID 2799); assay type: functional
HEK293 [17] = assay: cells; settings: Homo sapiens
[18] = target: T5, Lysosomal acid glucosylceramidase (Homo sapiens, UniProt P04062); assay: Dose response cell-based high throughput screening assay to identify enhancers of beta-glucosidase activity. [Related pubchem assays: 784 ]; assay type: functional
T5 sequence (P04062 whole entry): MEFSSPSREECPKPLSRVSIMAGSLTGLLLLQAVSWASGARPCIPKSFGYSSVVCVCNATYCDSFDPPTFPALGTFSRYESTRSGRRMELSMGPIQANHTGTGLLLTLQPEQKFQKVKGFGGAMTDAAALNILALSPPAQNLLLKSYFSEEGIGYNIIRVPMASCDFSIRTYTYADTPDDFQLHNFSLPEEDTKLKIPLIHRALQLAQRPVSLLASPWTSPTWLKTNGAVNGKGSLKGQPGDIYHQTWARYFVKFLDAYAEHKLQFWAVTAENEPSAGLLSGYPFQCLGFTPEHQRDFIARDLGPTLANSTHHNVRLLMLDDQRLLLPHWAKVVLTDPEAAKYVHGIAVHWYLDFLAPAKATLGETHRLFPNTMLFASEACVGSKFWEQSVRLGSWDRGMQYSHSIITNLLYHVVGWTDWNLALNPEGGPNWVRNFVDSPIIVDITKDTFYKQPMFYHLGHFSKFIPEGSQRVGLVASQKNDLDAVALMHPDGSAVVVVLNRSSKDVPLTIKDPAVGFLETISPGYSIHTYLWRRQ

[19] = target: T6, Calpain-2 catalytic subunit (Sus scrofa, UniProt P43367); assay: m-calpain protease blockers, concentration series – biochemical, fluorogenic peptide substrate, dose response (AID 1420); assay type: functional
T6 sequence (P43367 whole entry): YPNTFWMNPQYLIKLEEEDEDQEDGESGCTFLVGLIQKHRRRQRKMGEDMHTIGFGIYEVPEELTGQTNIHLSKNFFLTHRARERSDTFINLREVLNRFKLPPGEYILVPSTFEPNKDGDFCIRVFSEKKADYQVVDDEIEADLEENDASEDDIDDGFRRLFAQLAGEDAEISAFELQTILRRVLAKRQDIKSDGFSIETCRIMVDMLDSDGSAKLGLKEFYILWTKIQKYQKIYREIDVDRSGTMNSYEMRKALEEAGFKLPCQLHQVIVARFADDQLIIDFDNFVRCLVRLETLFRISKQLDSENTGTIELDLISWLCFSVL

Hexokinase HKDC1 = target: T7, Hexokinase HKDC1 (Homo sapiens, UniProt Q2TB90); assay: activation of HKDC1 glucose phosphorylation – biochemical, W721R variant, dose response (AID 504730); assay type: functional
T7 sequence (Q2TB90 whole entry): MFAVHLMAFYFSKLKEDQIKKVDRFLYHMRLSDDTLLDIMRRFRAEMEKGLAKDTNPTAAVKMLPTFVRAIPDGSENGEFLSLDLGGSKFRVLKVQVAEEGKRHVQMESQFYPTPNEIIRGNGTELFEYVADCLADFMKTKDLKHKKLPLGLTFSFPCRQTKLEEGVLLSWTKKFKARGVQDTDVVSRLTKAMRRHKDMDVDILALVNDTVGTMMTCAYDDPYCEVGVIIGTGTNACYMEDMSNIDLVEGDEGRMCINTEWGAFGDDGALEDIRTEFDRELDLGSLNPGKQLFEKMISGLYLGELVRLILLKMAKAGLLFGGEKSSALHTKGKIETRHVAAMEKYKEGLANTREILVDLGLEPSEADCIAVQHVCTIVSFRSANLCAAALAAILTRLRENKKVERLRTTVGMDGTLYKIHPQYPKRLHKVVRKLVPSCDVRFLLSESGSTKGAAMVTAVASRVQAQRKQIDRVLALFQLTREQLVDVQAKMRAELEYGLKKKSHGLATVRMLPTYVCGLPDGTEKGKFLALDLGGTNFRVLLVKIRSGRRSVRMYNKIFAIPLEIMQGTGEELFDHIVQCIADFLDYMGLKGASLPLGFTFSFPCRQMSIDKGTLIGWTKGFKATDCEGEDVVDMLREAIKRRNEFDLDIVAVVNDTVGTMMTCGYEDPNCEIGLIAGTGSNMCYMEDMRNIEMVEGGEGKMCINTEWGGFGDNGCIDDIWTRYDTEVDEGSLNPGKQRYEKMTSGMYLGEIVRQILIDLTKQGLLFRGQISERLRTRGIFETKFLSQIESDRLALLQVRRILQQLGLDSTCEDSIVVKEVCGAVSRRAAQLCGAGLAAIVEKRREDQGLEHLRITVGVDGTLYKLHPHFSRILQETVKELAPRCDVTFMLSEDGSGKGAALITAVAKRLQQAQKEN

Hexokinase-1 = target: T8, Hexokinase-1 (Homo sapiens, UniProt P19367); assay: HK1 enzyme activation by HKDC1 hits – biochemical, selectivity assay for HKDC1 activator project, dose response (AID 504762); assay type: functional
T8 sequence (P19367 whole entry): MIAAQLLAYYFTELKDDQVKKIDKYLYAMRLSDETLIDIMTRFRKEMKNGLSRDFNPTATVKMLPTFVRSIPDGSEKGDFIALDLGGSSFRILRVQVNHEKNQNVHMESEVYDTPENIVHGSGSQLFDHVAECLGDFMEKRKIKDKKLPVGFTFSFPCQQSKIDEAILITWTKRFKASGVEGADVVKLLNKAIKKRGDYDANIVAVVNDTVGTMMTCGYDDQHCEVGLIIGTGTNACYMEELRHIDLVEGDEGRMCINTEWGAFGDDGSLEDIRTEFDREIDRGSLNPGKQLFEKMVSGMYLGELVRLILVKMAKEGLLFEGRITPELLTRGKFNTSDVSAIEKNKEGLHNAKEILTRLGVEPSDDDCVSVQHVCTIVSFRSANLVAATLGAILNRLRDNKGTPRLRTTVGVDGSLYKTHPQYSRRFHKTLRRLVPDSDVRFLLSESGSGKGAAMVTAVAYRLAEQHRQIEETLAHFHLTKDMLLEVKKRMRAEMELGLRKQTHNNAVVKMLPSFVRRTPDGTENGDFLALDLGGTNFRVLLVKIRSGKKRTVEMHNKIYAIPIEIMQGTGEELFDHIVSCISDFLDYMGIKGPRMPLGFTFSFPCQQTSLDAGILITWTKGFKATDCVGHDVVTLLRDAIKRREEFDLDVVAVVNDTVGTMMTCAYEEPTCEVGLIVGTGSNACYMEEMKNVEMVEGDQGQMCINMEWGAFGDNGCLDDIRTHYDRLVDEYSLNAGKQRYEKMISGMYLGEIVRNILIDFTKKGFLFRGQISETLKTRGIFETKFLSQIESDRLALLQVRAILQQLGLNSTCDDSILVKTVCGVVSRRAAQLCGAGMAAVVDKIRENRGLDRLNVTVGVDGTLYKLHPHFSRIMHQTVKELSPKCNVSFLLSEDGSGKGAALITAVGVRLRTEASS

`C/C=C/Cn1c(SCCCc2ccccc2)nc2c1c(=O)[nH]c(=O)n2C` was tested, and the IC50 [1] was 14.4 µM (active), the EC50 (HEK293 [2]) was 6.37 µM (active) and the IC50 (HEK293 [3]) was > 20 µM (inactive). The IC50 (HEK293 [4]) was > 20 µM (inactive), the IC50 (HEK293 [5]) was 16.2 µM (inactive) and the IC50 (Interleukin-8 [6]) was > 25 µM (inactive). For the same molecule, the IC50 (Interleukin-8 [7]) was 3.43 µM (active), the IC50 [8] was 4.18 µM (active) and the IC50 (Tumor necrosis factor [9]) was 62.7 µM (inactive). For the same molecule, the IC50 (HEK293 [10]) was > 20 µM (inactive), the IC50 [11] was 1.81 µM (active) and the IC50 [12] was 1.36 µM (active). The IC50 (Tumor necrosis factor [13]) was 18.2 µM (active) and 18.6 µM (inactive), the IC50 (HEK293 [14]) was > 20 µM (inactive) and the IC50 [15] was 16.9 µM (active). The IC50 [16] was 7.97 µM (active) and 10.6 µM (active) and the IC50 (HEK293 [17]) was > 20 µM (inactive).

`O=S(=O)(NC1c2cccc3cccc(c23)C1N1CCNCC1)c1ccccc1` (stereo unspecified) was tested, and the EC50 [18] was 1.66 µM (active), the IC50 [19] was < 0.4 µM (not active) and the EC50 (Hexokinase HKDC1) was 11.7 µM (active). The EC50 (Hexokinase-1) was 13.6 µM (active).
